Measured values taken from patent publication US12629390B2, “Stabilized amorphous calcium carbonate for treatment of neurological, muscular and infertility diseases or conditions” (AMORPHICAL LTD., priority 2016, dated 2026).

Legend:
[1] = test system: spinal cord-dorsal root ganglia (SC-DRG) slices; test: nerve fiber sprouting from SC-DRG co-cultures; assay type: cell-based, rat; details: after 4 days of cultivation, portion of explants (out of 6)
Procedure: Neural and Vascular Reconstruction Gel ([…] Labs proprietary) is composed of two main components: high molecular hyaluronic acid (HA, 3×10^6 Da, BTG, Israel) and laminin (Sigma). […] The gel has the texture of a viscous liquid, it adheres easily and successfully the embedded cells or explants to the plastic or glass substratum, and enabled nerve fiber outgrowth in a 3D pattern. All the experiments were carried out and authorized by the local ethics committee recognized by the Israeli authorities for animal experimentation. Stationary organotypic cultures of dorsal root ganglia (DRG) and spinal cord (SC) as well as cultures of dissociated brain cells were prepared from rat fetuses (15 days of gestation, Lewis inbred, Harlan, Israel). Immediately after dissection, the isolated tissues were cut with a […] tissue chopper into small slices (of 400 μm thickness). In these studies, two tissue culture strategies were used. […] In the second method, the tissue slices were further dissociated with a trypsin-EDTA solution for 30 min, and washed with a culture medium. Subsequently, the dissociated cells were added to a suspension of chitosan powder or gastrolith powder (micro carriers, MCs) and incubated in suspension at 37° C. for 4 days. […] Calcium source were as following: ACC-Etidronic Acid (ACC-ET) (fresh suspension); ACC-Phosphoserine (ACC-PS) (fresh suspension); Gastrolith (dissolved with 0.1 M HCl and then neutralized with NaOH 1M); gastrolith powder; […] The cultures were monitored by daily phase contrast microscopic observations starting from 24 hours after setting the cultures onward. Suspensions of fresh ACC preparations consisted of particles forming a stable suspension. The gastrolith is a natural ACC isolated from crabs, and can be purchased only as a dry powder. In this form, its other characteristic components (such as calcium ions and proteins) are not available to the cells. In order to increase their bioavailability, the gastrolith powder was dissolved in 0.1 M HCl (which mimics the acidity which exists in the stomach) and then neutralized with 1M NaOH. […] The specimens were then incubated with rabbit anti-neurofilament antibodies (NF, Novus Biologicals, 1:500) to visualize the neurite outgrowth. […] Finally, the samples were rinsed again with wash buffer, and mounted with mounting medium (Immco Diagnostic, USA).

[2] = test system: healthy skeletal muscle cultures; test: myotube formation and contraction in healthy skeletal muscle cultures; assay type: cell-based, rat; details: added at 1 mM (final Ca2+ 2 mM)
Procedure: Stationary skeletal muscle cultures were prepared from healthy 1 day new born rat (Sprague Dawley, Harlan, Israel). The muscle tissue was dissected from posterior legs and was thoroughly minced. Digestion was performed with Trypsin-EDTA while gentle trituration. After 30 min the supernatant, containing dissociated cells, was collected and a fresh Trypsin-EDTA was added. This procedure was repeated two more times. Then, all supernatants were pooled, centrifuged, and the cell pellet was re-suspended in Proliferation Medium. Cells were seeded in a Gelatin coated 12 wells culture plates, 1×10^5 cells/well containing 1 mL of Proliferation Medium. Two days later, the medium was changed to Fusion Medium, which was then changed twice a week. The cultures were monitored by daily phase contrast microscopic observations from 24 hours after setting the cultures and onward.
Stock solution of 1% porcine gelatin in water, was sterilized by autoclave. Once cooled, 500 μl of the solution were added to each well of the 12-wells culture plat. After incubation for 20 min at room temperature, the excess solution was removed, and the cells were seeded.
For the proliferation stage, cells were cultured in: DMEM/F12 (containing 1 mM Ca^2+) +10% FBS, 25 μg/mL Gentamycin, and 2 mM L-Glutamine.
For the fusion stage the Proliferation Medium was changed with Fusion Medium, which was prepared as following: DMEM/F12 (containing 1 mM Ca2+), 2% horse serum (HS), 2 mM L-Glutamine, 25 μg/mL Gentamycin, and 4 units/100 mL Insulin (all purchased from Biological-Industries, Israel).
Control cultures were grown without further added calcium, or cultures enriched with free (soluble) stabilizer. The experiment was blinded by marking the various calcium preparations with arbitrary numerals only.
The components were added in one of the following ways: (i) aqueous suspensions of dry material; (ii) aqueous suspension of fresh material (before drying), or (iii) dissolved with HCl (to mimic the acidity which exists in the stomach. After dissolving was accomplished, the formed solutions were neutralized with 1M NaOH).

[3] = test system: mdx mice; test: serum creatinine kinase (CK) levels in mdx mice given calcium supplements orally; assay type: in vivo; details: 12 weeks
From the text: Experimental mice were administrated orally (by feeding or drinking) with control or test items. The control or test items were repeatedly administered daily until the study termination (after 12 weeks).
Animals were administrated with ACC by food or by drinking. Animals were administrated with CCC by food. Control was administrated by feeding. The control or test items were repeatedly administered daily until study termination.
At study termination blood sample was drawn from all animals under light anesthesia with Ketmaine/Xylazine, directly from the retro orbital sinus.
200 μl blood were collected into a yellow-cup tube with clotting activator gel. The tubes were kept at room temperature for at least 30 minutes for clotting and centrifuged at room temperature for 10 minutes at 4000 RPM. The serum samples are stored at 2-4° C. until delivered to CK analysis at A.M.L labs.

[4] = test system: mice embryos; test: in vitro embryo development in Quinn's Advantage cleavage media; assay type: cell-based
Procedure: CBA male mice were bred with BL C57 female mice. The mice were kept on a 12 hours photoperiod schedule with unlimited water and food supply. About 6 to 8 weeks after receiving offspring, each female mouse was injected IP with 5IU of pregnant mare serum gonadotropin (PMSG).
After 48 hours each female mouse was injected IP with 5IU human chorionic gonadotropin (hCG). Male mice proven to be fertile were then put together with the superovulated females. The next morning the female mice were examined for the presence of copulatory plugs. Females that had copulatory plugs were euthanized after 24 hours (approximately 36 hours post-coitus) and embryos at 2 cell stage were retrieved from the oviducts as following: the oviducts were dissected in Quinn's Advantage cleavage media (SAGE, Origio, Denmark) and the embryos were transferred to 20 μL drops with Quinn's Advantage cleavage media (SAGE, Origio, Denmark) overlaid with mineral oil and cultured at 37.0° C. under 5% CO2 and atmospheric oxygen. The collected embryos continued to grow, i.e. in-vitro culture (IVC), until blastocyst/hatching stage. To test the effect of amorphous calcium carbonate, the Quinn's Advantage cleavage media (“cleavage media” hereinafter) was supplemented with different additives, i.e. amorphous calcium carbonate stabilized by polyphosphate (ACC-PP), crystalline calcium carbonate (CCC), polyphosphate (PP), phosphoserine (PS) or sodium carbonate ([…]). All supplements were added as a freshly prepared suspension; the preparation of the ACC supplements were performed under aseptic conditions. Untreated cleavage media (without addition of any additive) was used as a control (identified as Cont Q). The embryos were evaluated every day by microscope observation for a detection of the following stages: 2 cells, compactions stage, blastocysts formation and hatching stage. The fraction (in percent) of the embryos reached each stage was calculated (the number of 2 cells embryos was set as 100%).

[5] = test system: sperm; details: addition to calcium-free mediums; Bhoumik et al. 2014; cited from earlier work
[6] = Example 15, pooled embryos, 3.3 mM in cleavage media
[7] = Example 17, mouse 1 sibling embryos, 1.7 mM in cleavage media
[8] = Example 16, pooled embryos, 1.7 mM in cleavage media
[9] = Example 13, mice 3-7 pooled embryos, 1.6 mM in cleavage media
[10] = Example 14, pooled embryos, 1.6 mM in cleavage media
[11] = Example 17, mice 3-6 pooled embryos, 1.7 mM in cleavage media
[12] = Example 17, mouse 2 sibling embryos, 1.7 mM in cleavage media

In the case of CC(O)(P(=O)(O)O)P(=O)(O)O [ET, Etidronic Acid], the “Cultures with axonal regeneration (%)” value ([1]; stabilizer alone at 0.05%) is reported as 33.3%.
For O=C([O-])[O-].[Ca+2] [CCC, crystalline calcium carbonate], the “Cultures with axonal regeneration (%)” value ([1]; calcium preparation at Ca2+ 2 mM) was 50%, the “muscle fibers after 7 days” value [2] was “fewer, thinner and shorter muscle fibers” and the “early formation of many myotubes, time of cultivation” value ([2]; dry powder suspended in water) was “later”. For the same compound, the “elevation of CK compared to mdx group on normal diet only (2M)” value ([3]; by food, diet with 1% elemental calcium (4M: synthetic ACC 5% PS; 3M: synthetic CCC)) was “not statistically significant”, the “creatinine kinase (CK) in serum” value ([3]; group 3M: by food, diet with 1% elemental calcium) was 21,676±14,508 IU/ml and the “8 cell/d2: number of embryos” value [4, 6] was 3. The “Blast/d3: number of embryos” value [4, 6] was 17, the “Blast/d3: portion of the initial number of embryos” value (shortened to “Blast/d3: portion”) [4, 6] was 100% and the “Hatch/d4: number of embryos” value [4, 6] was 14. For the same compound, the “Hatch/d4: portion of the initial number of embryos” value (shortened to “Hatch/d4: portion”) [4, 6] was 82.35%, the “comp/d2: number of embryos” value [4, 6] was 14 and the “8 cell/d2: number of embryos” value [4, 7] was 14. The “Blast/d3: number of embryos” value [4, 7] was 12, the “Blast/d4: number of embryos” value [4, 7] was 5 and the “Hatch/d4: number of embryos” value [4, 7] was 15. For the same compound, the “Hatch/d4: portion” value [4, 7] was 62.5%, the “comp/d2: number of embryos” value [4, 7] was 6 and the “degenerative: number of embryos” value [4, 7] was 1. The “early Blast/d3: number of embryos” value [4, 7] was 8.
For N[C@@H](COP(=O)(O)O)C(=O)O [PS, phosphoserine], the “Cultures with axonal regeneration (%)” value ([1]; stabilizer alone at 0.05%) was 0%, the “8 cell/d2: number of embryos” value [4, 8] was 5 and the “Blast/d3: number of embryos” value [4, 8] was 12. For the same compound, the “Blast/d3: portion” value [4, 8] was 92.3%, the “Hatch/d4: number of embryos” value [4, 8] was 10 and the “Hatch/d4: portion” value [4, 8] was 76.9%. For the same compound, the “comp/d2: number of embryos” value [4, 8] was 8.
In the case of polyphosphate [PP], the “8 cell/d2: number of embryos” value [4, 9] is reported as 9, the “Blast/d3: number of embryos” value [4, 9] is reported as 20 and the “Blast/d3: portion” value [4, 9] is reported as 54.1%. For the same compound, the “Hatch/d4: number of embryos” value [4, 9] was 17, the “Hatch/d4: portion” value [4, 9] was 45.9% and the “comp/d2: number of embryos” value [4, 9] was 20. The “8 cell/d2: number of embryos” value [4, 10] was 6, the “Blast/d3: number of embryos” value [4, 10] was 34 and the “Blast/d3: portion” value [4, 10] was 94.44%. The “Hatch/d4: number of embryos” value [4, 10] was 16, the “Hatch/d4: portion” value [4, 10] was 44.44% and the “comp/d2: number of embryos” value [4, 10] was 30.
For [Ca+2] [Ca^2+ ions], the “increase of forward sperm motility” value [5] is given as “up to 20%”.
For O=C([O-])[O-].[Na+].[Na+] [NaCO3, sodium carbonate], the “embryonic development compared to control or to the addition of ACC-PP” value ([4]; Example 17, 1.7 mM in cleavage media) was “very poor embryonic development”, the “8 cell/d2: number of embryos” value [4, 11] was 2 and the “Blast/d3: number of embryos” value [4, 11] was 0. The “Blast/d4: number of embryos” value [4, 11] was 0, the “Hatch/d4: number of embryos” value [4, 11] was 0 (0) and the “Hatch/d4: portion” value [4, 11] was 0 (0) %. The “comp/d2: number of embryos” value [4, 11] was 7, the “degenerative: number of embryos” value [4, 11] was 1 and the “early Blast/d3: number of embryos” value [4, 11] was 0. For the same compound, the “8 cell/d2: number of embryos” value [4, 12] was 6, the “Blast/d3: number of embryos” value [4, 12] was 2 and the “Blast/d4: number of embryos” value [4, 12] was 0. For the same compound, the “Hatch/d4: number of embryos” value [4, 12] was 2, the “Hatch/d4: portion” value [4, 12] was 12.5% and the “comp/d2: number of embryos” value [4, 12] was 8. The “degenerative: number of embryos” value [4, 12] was 2 and the “early Blast/d3: number of embryos” value [4, 12] was 14.
